In data set [1] the test system is senescent cells in the lung. Nature of the data set: Elimination of senescent cells induced by Doxorubicin treatment in mice. The data set is classed as in vivo. The conditions noted are these: single dose 10 mg/kg Doxorubicin; 2 months later treated for 4 consecutive days; FIG. 15. As to the method: (A) Experimental set up, mice (n=5 per group) were administered with a single dose of 10 mg/kg of Doxorubicin. […] (B) Cryosections of lungs obtained from control and doxorubicin treated mice were stained with hematoxilin and eosin (to reveal tissue architecture), and SA-β-Gal (to reveal senescent cells). Senescent cells accumulate in the bronchioles of doxorubicin-treated mice. (C) Quantification of the lung area positive for SA-β-Gal staining. […] (D) Representative pictures of lung cryosections.
Further experiments investigated whether the senolytic agents were capable of eliminating senescent cells in vivo. […] These senescent cells are responsible for some of the side-effects associated with chemotherapy and can fuel the growth of cancerous cells (Demaria et al., 2016). […] Doxorubicin treatment induces senescence in the lung.

The conditions of data set [2]: use in vivo; cited from earlier work.
For data set [3], the system named is senescent cells in the lung. In words: Elimination of senescent cells induced by whole body irradiation in mice. The conditions noted are these: 6 Gray whole body irradiation; 2 months later treated for 4 consecutive days; FIG. 16. The format is in vivo. From the text:
(A) Experimental set up, mice (n=5 per group) were irradiated with 6 Gray to induce senescence. […] (B) Cryosections of lungs obtained from control and irradiated mice were stained with hematoxilin and eosin (to reveal tissue architecture), and SA-β-Gal (to reveal senescent cells). Senescent cells accumulate in the bronchioles of irradiated mice. (C) Quantification of the lung area positive for SA-β-Gal staining. […] (D). Representative pictures of lung cryosections.
Whole-body irradiation is known to cause senescence. In irradiated mice, senescent cells accumulate in different tissues, including the lung (Chang et al., 2016; Yosef et al., 2016).

The test system of a further data set is IMR90 ER:RAS E6/E7 cells. Nature of the data set: Killing of IMR90 ER:RAS E6/E7 cells (RAS signalling without senescence). Conditions: 1, 5 and 10 μM; 4OHT vs DMSO; FIG. 5. The data set is classed as cell-based, human.
The subject of data set [4] is senescent human fibroblasts. Conditions: Lui et al, Sci Rep 2015; cited from earlier work.
Another data set deals with IMR90 ER:RAS cells. Nature of the data set: Senolytic activity in IMR90 ER:RAS cells undergoing oncogene-induced senescence (4OHT) vs DMSO-treated non-senescent cells. Conditions: 4OHT vs DMSO; FIG. 11.

The source of these data is patent US20200121620A1, “SENOLYTIC COMPOUNDS” (UNITED KINGDOM RESEARCH AND INNOVATION, priority 2017, published 2020).

Experimental for IMR90 ER:RAS E6/E7 cells: In these experiments the compounds were tested side by side with a control ABT-263 (the de facto gold standard senolytic compound) (Chang et al., 2016; Yosef et al., 2016; Zhu et al., 2016). Experiments were conducted to test the ability of the compounds to behave as senolytics during OIS (using IMR90 ER:RAS, FIG. 3 and HMEC hTERT ER:RAS, FIG. 4). […] To understand whether the selective killing of senescent IMR90 ER:RAS was a consequence of senescence induction or of activation of RAS signaling, experiments were conducted in isogenic IMR90 ER:RAS E6/E7 cells. In these cells, RAS signalling is induced by adding 100 nM 4OHT that activates the ER:RAS fusion protein. However, expression of the E6/E7 protein prevents senescence induction.
Experimental for IMR90 ER:RAS cells: FIG. 1: (A) IMR90 ER:RAS cells were induced to undergo senescence by treating them with 100 nM 4OHT for 6 days. At that point, 10 μM of the indicated drugs was added. In parallel, the same treatments were carried out in IMR90 ER:RAS cells treated with DMSO (−4OHT). […] Cells were fixed at day 6, 8 and 10 after 4OHT induction and stained with crystal violet to assess cell viability. T, Tyr-AG879; P, PF-573228; C, Cyclosporine. (B) A similar experiment to (A) was conducted and cells at day 10 post-induction were fixed and stained with DAPI to assess cell numbers
In the setup used, IMR90 ER:RAS cells were treated with 100 nM 4OHT to induce OIS (oncogene induced senescence) and activate the ER:RAS fusion protein. 6 days after 4OHT induction (+4OHT), once cells were fully senescent, the agents to be tested were added at a concentration of 10 μM, and cell numbers were assessed 4 days after by DAPI stained couple to automated microscopy. Alternatively, cells were fixed and stained with crystal violet. In parallel, the same treatments were carried out in IMR90 ER:RAS cells treated with DMSO (−4OHT).
IMR90 ER:RAS cells were induced to undergo senescence by treating them with 100 nM 4OHT for 6 days. At that point, 10 μM of the indicated drugs was added. In parallel, the same treatments were carried out in IMR90 ER:RAS cells treated with DMSO (−4OHT). […] Cells were fixed at day 6, 8 and 10 after 4OHT induction and stained with crystal violet to assess cell viability. A similar experiment was conducted and cells at day 10 post-induction were fixed and stained with DAPI to assess cell numbers (see FIG. 1).

Consider `CC1(C)CCC(c2ccc(Cl)cc2)=C(CN2CCN(c3ccc(C(=O)NS(=O)(=O)c4ccc(N[C@H](CCN5CCOCC5)CSc5ccccc5)c(S(=O)(=O)C(F)(F)F)c4)cc3)CC2)C1` [ABT-263], for which the “lung area positive for SA-β-Gal staining (senescent cells)” value in data set [1] and in data set [3] was “partially eliminated” in each case. In addition, the side-effect entry in data set [2] is “significant thrombocytopenia”.
For `c1ccc2c(c1)[IH]c1ccccc1-2` [Diphenyleneiodonium chloride], in the data set on IMR90 ER:RAS E6/E7 cells, the “selectivity for killing IMR90 ER:RAS E6/E7” value is reported as “displayed selectivity for killing IMR90 ER:RAS E6/E7”. In addition, the “lung area positive for SA-β-Gal staining (senescent cells)” value in data set [3] is reported as “partially eliminated”.
For `CCC(C)(C)C(=O)O[C@H]1C[C@@H](C)C=C2C=C[C@H](C)[C@H](CC[C@@H]3C[C@@H](O)CC(=O)O3)[C@H]21` [Simvastatin], the “senescence-associated secretory phenotype (SASP)” value in data set [4] is listed as “decrease the senescence-associated secretory phenotype (SASP)”. Moreover, the “senolytic effect of statins, preferential killing of cells undergoing OIS” value with IMR90 ER:RAS cells was “behaves as a senolytic in a concentration dependent manner”.
